From ChEMBL document CHEMBL1201862, “PubChem BioAssay data set” (2004)
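Interpolation was linear, between the two tested concentrations surrounding the appropriate level; five concentrations were tested over 48 hours in 96-well plates. Abbreviation: GI50, concentration required for 50% inhibition of growth.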 Active and inactive are the calls of the source. Cut-off read from the data, not from the text of the source: active = GI50 up to about 1.1 µM and inactive = higher.

Experiments:
Experiment in all cases: NCI-60 cell line screen, 48 h
A549 = tested on: A549
DU-145 = tested on: DU-145
A498 = tested on: A498
EKVX = tested on: EKVX
NCI-H522 = tested on: NCI-H522
NCI-H23 = tested on: NCI-H23
HOP-62 = tested on: HOP-62
IGROV-1 = tested on: IGROV-1
UACC-62 = tested on: UACC-62
MCF7 = tested on: MCF7
NCI-H226 = tested on: NCI-H226
NCI-H460 = tested on: NCI-H460
K562 = tested on: K562
SN12C = tested on: SN12C
UO-31 = tested on: UO-31
OVCAR-3 = tested on: OVCAR-3
PC-3 = tested on: PC-3
HT-29 = tested on: HT-29
TK-10 = tested on: TK-10
XF498 = tested on: XF498

SMILES	GI50 (A549)	GI50 (DU-145)	GI50 (A498)	GI50 (EKVX)	GI50 (NCI-H522)	GI50 (NCI-H23)	GI50 (HOP-62)	GI50 (IGROV-1)	GI50 (UACC-62)	GI50 (MCF7)	GI50 (NCI-H226)	GI50 (NCI-H460)	GI50 (K562)	GI50 (SN12C)	GI50 (UO-31)	GI50 (OVCAR-3)	GI50 (PC-3)	GI50 (HT-29)	GI50 (TK-10)	GI50 (XF498)
CN(C)CCSS(=O)(=O)O	> 100 µM (inactive)	> 100 µM (inactive)	> 100 µM (inactive)	> 100 µM (inactive)	83.9 µM (inactive)	> 100 µM (inactive)	15.4 µM (inactive)	> 100 µM (inactive)	> 100 µM (inactive)	> 100 µM (inactive)	> 100 µM (inactive)	16 µM (inactive)	> 100 µM (inactive)	> 100 µM (inactive)	> 100 µM (inactive)	9.16 µM (inactive)	> 100 µM (inactive)	> 100 µM (inactive)	> 100 µM (inactive)	
Cc1cc2c(nn1)-c1ccccc1C2=O	> 10 µM (inactive)	> 10 µM (inactive)	> 10 µM (inactive)	> 10 µM (inactive)	> 10 µM (inactive)	> 10 µM (inactive)	> 10 µM (inactive)	> 10 µM (inactive)	> 10 µM (inactive)	> 10 µM (inactive)	> 10 µM (inactive)	> 10 µM (inactive)	> 10 µM (inactive)	> 10 µM (inactive)	> 10 µM (inactive)	> 10 µM (inactive)	> 10 µM (inactive)	> 10 µM (inactive)	> 10 µM (inactive)	
CC1(C)CC(=O)c2c([nH]c(=S)c(C#N)c2-c2ccc(Br)cc2)C1	56.2 µM (inactive)	61 µM (inactive)	54 µM (inactive)	> 100 µM (inactive)	24.2 µM (inactive)	51.1 µM (inactive)	41.7 µM (inactive)	62.5 µM (inactive)	32.7 µM (inactive)	40.7 µM (inactive)	46.8 µM (inactive)	40.7 µM (inactive)	43.4 µM (inactive)	48.9 µM (inactive)	45.9 µM (inactive)	30.7 µM (inactive)	30.4 µM (inactive)	40.3 µM (inactive)	81.8 µM (inactive)	
CCOP(=O)(OCC)/C(C#N)=C/c1ccc(-c2ccc(F)cc2F)o1	15.3 µM (inactive)	27.2 µM (inactive)	15.1 µM (inactive)	16.3 µM (inactive)	15.3 µM (inactive)	14.5 µM (inactive)	19.2 µM (inactive)	13.9 µM (inactive)	11.3 µM (inactive)	19.7 µM (inactive)	16.5 µM (inactive)	20 µM (inactive)	12.2 µM (inactive)	15.8 µM (inactive)	13.1 µM (inactive)	14.9 µM (inactive)	10.8 µM (inactive)	16.5 µM (inactive)	12.6 µM (inactive)	
Cc1cc2c(C)n(Cc3ccc(Cl)cc3Cl)nc2c(C(=O)O)c1C	> 100 µM (inactive)			> 100 µM (inactive)		> 100 µM (inactive)	> 100 µM (inactive)	> 100 µM (inactive)	96.8 µM (inactive)		> 100 µM (inactive)	96.4 µM (inactive)		63.4 µM (inactive)	> 100 µM (inactive)	> 100 µM (inactive)		> 100 µM (inactive)	> 100 µM (inactive)	> 100 µM (inactive)
O=C(O)c1ccccc1-c1ccccc1C(=O)c1ccccc1	> 100 µM (inactive)	> 100 µM (inactive)	> 100 µM (inactive)	> 100 µM (inactive)	> 100 µM (inactive)	> 100 µM (inactive)	> 100 µM (inactive)	> 100 µM (inactive)	> 100 µM (inactive)	> 100 µM (inactive)	> 100 µM (inactive)	> 100 µM (inactive)	> 100 µM (inactive)	> 100 µM (inactive)	> 100 µM (inactive)	> 100 µM (inactive)	> 100 µM (inactive)	> 100 µM (inactive)	> 100 µM (inactive)	
CC(=O)c1ccc(Oc2c3ccccc3nc3ccccc23)cc1	9.35 µM (inactive)	4.5 µM (inactive)	16.1 µM (inactive)	17.5 µM (inactive)	12.2 µM (inactive)	22.5 µM (inactive)	14.4 µM (inactive)	4.89 µM (inactive)	6.41 µM (inactive)	3.22 µM (inactive)	9.1 µM (inactive)	15.4 µM (inactive)	3.41 µM (inactive)	5.08 µM (inactive)	3.83 µM (inactive)	7.53 µM (inactive)	6.89 µM (inactive)	2.73 µM (inactive)	6.76 µM (inactive)	
O=C1c2cccc3cccc(c23)C(=O)N1CCCNCCCCNCCCN1C(=O)c2cccc3cccc(c23)C1=O	0.0495 µM (active)	0.0887 µM (active)	0.946 µM (active)	0.986 µM (active)	< 0.0112 µM (active)	0.0944 µM (active)	0.205 µM (active)	0.0697 µM (active)	0.337 µM (active)	< 0.0138 µM (active)	0.748 µM (active)	0.0194 µM (active)	0.0226 µM (active)	0.104 µM (active)	2.26 µM (inactive)	0.2 µM (active)	0.17 µM (active)	0.0315 µM (active)	1.57 µM (inactive)	
